Where a SMILES comes first, the peptide text is derived from it. Bridges are numbered along the chain shown (N, C = ends). [ ]: non-standard residue; d: D form. The star is where a group is joined. Phe(4-CONH2) = NC(=O)c1ccc(C[C@H](N)C(=O)O)cc1; Phe(4-COOH) = N[C@@H](Cc1ccc(C(=O)O)cc1)C(=O)O; Asp(3,3-Me2) = CC(C)(C(=O)O)[C@H](N)C(=O)O; Bip = N[C@@H](Cc1ccc(-c2ccccc2)cc1)C(=O)O; Phe(3-Me) = Cc1cccc(C[C@H](N)C(=O)O)c1; Val(3-OH) = CC(C)(O)[C@H](N)C(=O)O; 4Pal = N[C@@H](Cc1ccncc1)C(=O)O; 2Thi = N[C@@H](Cc1cccs1)C(=O)O; Cha = N[C@@H](CC1CCCCC1)C(=O)O; hSer = N[C@@H](CCO)C(=O)O; Carboxymethyl = O=C(O)C*; Orn = NCCC[C@H](N)C(=O)O; Dab = NCC[C@H](N)C(=O)O; Nva = CCC[C@H](N)C(=O)O; Ac3c = NC1(C(=O)O)CC1; NHCH2CH2OMe = COCCN*

Broadly, the IC50 is the midpoint of a concentration-inhibition curve.

T1 sequence (Q15116 25-288): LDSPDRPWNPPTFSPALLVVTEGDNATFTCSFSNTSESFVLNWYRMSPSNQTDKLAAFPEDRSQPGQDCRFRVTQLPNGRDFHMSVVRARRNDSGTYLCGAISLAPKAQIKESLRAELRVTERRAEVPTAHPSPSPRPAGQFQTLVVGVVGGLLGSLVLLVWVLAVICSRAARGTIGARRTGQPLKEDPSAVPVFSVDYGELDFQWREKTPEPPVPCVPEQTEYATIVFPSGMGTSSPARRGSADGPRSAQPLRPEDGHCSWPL

The assay has as its target T1, human PD-1 / PD-L1-Ig binding on Jurkat cell line over-expressing human PD-1 (Jurkat-PD-1) (Homo sapiens, UniProt Q15116).
T1 construct: expressed in transfected cells; host or cells: Jurkat
In words: Jurkat-PD-1 Cell Binding High-Content Screening Assay (CBA). Format: cell-based. The conditions noted are these: Jurkat-PD-1 cells, PE-labeled PD-L1-Ig 20 nM final; read-out: Jurkat HPD1_PDL1 IC50. Summed up:
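Jurkat cells over-expressing human PD-1, in DMEM/10% FCS, pre-incubated with compound 2 h at 37° C. PE-labeled human PD-L1-Ig (20 nM final) added for 1 h; cells fixed in paraformaldehyde with Hoechst 33342 nuclear stain, washed, and bound fluorescence quantified by high-content imaging.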
As for `Cc1cccc(C[C@@H]2NC(=O)[C@H](CC(=O)O)NC(=O)[C@H](Cc3ccc(OCC(=O)O)cc3)NC(=O)[C@H]([C@@H](C)O)NC(=O)CSC[C@@H](C(=O)NC3(C(N)=O)CC3)NC(=O)[C@H](CO)NC(=O)[C@H](C(C)C)NC(=O)[C@H](CC3CCCCC3)NC(=O)[C@H](CCN)NC(=O)[C@@H](CC(C)C)NC(=O)[C@H](CCCN)NC(=O)[C@H](Cc3ccc(OCC(=O)O)cc3)NC(=O)[C@H](Cc3ccc(-c4ccccc4)cc3)NC(=O)[C@H](Cc3ccc(OCC(=O)O)cc3)NC2=O)c1` [Compound 2065] ({CH2CO}-TY(Carboxymethyl)D[Phe(3-Me)]Y(Carboxymethyl)[Bip]Y(Carboxymethyl)[Orn][dL][Dab][Cha]VSC[Ac3c]-NH2; thioether N-14), the IC50 worked out at 19.5 nM.
To `Cc1cccc(C[C@@H]2NC(=O)[C@H](CC(=O)O)NC(=O)[C@H](Cc3ccc(OCC(=O)O)cc3)NC(=O)[C@H](Cc3ccncc3)NC(=O)CSC[C@@H](C(=O)N[C@@H](CCN)C(N)=O)NC(=O)[C@H]([C@@H](C)O)NC(=O)[C@H](C(C)(C)O)NC(=O)[C@H](CC3CCCCC3)NC(=O)[C@H](CCN)NC(=O)[C@@H](CC(C)C)NC(=O)[C@H](CCCN)NC(=O)[C@H](Cc3ccc(OCC(=O)O)cc3)NC(=O)[C@H](Cc3ccc(-c4ccccc4)cc3)NC(=O)[C@H](Cc3ccc(OCC(=O)O)cc3)NC2=O)c1` [Compound 2066] ({CH2CO}-[4Pal]Y(Carboxymethyl)D[Phe(3-Me)]Y(Carboxymethyl)[Bip]Y(Carboxymethyl)[Orn][dL][Dab][Cha][Val(3-OH)]TC[Dab]-NH2; thioether N-14) belongs 6.1 nM; to `Cc1cccc(C[C@@H]2NC(=O)[C@H](CC(=O)O)NC(=O)[C@H](Cc3ccc(OCC(=O)O)cc3)NC(=O)[C@H](Cc3cccs3)NC(=O)CSC[C@@H](C(=O)N[C@@H](CCN)C(N)=O)NC(=O)[C@H]([C@@H](C)O)NC(=O)[C@H](C(C)(C)O)NC(=O)[C@H](CC3CCCCC3)NC(=O)[C@H](CCN)NC(=O)[C@@H](CC(C)C)NC(=O)[C@H](CCCN)NC(=O)[C@H](Cc3ccc(OCC(=O)O)cc3)NC(=O)[C@H](Cc3ccc(-c4ccccc4)cc3)NC(=O)[C@H](Cc3ccc(OCC(=O)O)cc3)NC2=O)c1` [Compound 2067] ({CH2CO}-[2Thi]Y(Carboxymethyl)D[Phe(3-Me)]Y(Carboxymethyl)[Bip]Y(Carboxymethyl)[Orn][dL][Dab][Cha][Val(3-OH)]TC[Dab]-NH2; thioether N-14), 6.3 nM.
As to `Cc1cccc(C[C@@H]2NC(=O)[C@H](CC(=O)O)NC(=O)[C@H](Cc3ccc(OCC(=O)O)cc3)NC(=O)[C@H](Cc3ccncc3)NC(=O)CSC[C@@H](C(=O)N[C@@H](CCN)C(N)=O)NC(=O)[C@H](CCC(N)=O)NC(=O)[C@H](C(C)(C)O)NC(=O)[C@H](CC3CCCCC3)NC(=O)[C@H](CCN)NC(=O)[C@@H](CC(C)C)NC(=O)[C@H](CCCN)NC(=O)[C@H](Cc3ccc(OCC(=O)O)cc3)NC(=O)[C@H](Cc3ccc(-c4ccccc4)cc3)NC(=O)[C@H](Cc3ccc(OCC(=O)O)cc3)NC2=O)c1` [Compound 2068] ({CH2CO}-[4Pal]Y(Carboxymethyl)D[Phe(3-Me)]Y(Carboxymethyl)[Bip]Y(Carboxymethyl)[Orn][dL][Dab][Cha][Val(3-OH)]QC[Dab]-NH2; thioether N-14), the IC50 was determined as 8.2 nM.
Take `Cc1cccc(C[C@@H]2NC(=O)[C@H](CC(=O)O)NC(=O)[C@H](Cc3ccc(OCC(=O)O)cc3)NC(=O)[C@H](Cc3ccc(C(N)=O)cc3)NC(=O)CSC[C@@H](C(=O)N[C@@H](CCN)C(N)=O)NC(=O)[C@H](CCC(N)=O)NC(=O)[C@H](C(C)(C)O)NC(=O)[C@H](CC3CCCCC3)NC(=O)[C@H](CCN)NC(=O)[C@@H](CC(C)C)NC(=O)[C@H](CCCN)NC(=O)[C@H](Cc3ccc(OCC(=O)O)cc3)NC(=O)[C@H](Cc3ccc(-c4ccccc4)cc3)NC(=O)[C@H](Cc3ccc(OCC(=O)O)cc3)NC2=O)c1` [Compound 2069] ({CH2CO}-[Phe(4-CONH2)]Y(Carboxymethyl)D[Phe(3-Me)]Y(Carboxymethyl)[Bip]Y(Carboxymethyl)[Orn][dL][Dab][Cha][Val(3-OH)]QC[Dab]-NH2; thioether N-14): the IC50 is 7.2 nM.
To `Cc1cccc(C[C@@H]2NC(=O)[C@H](CC(=O)O)NC(=O)[C@H](Cc3ccc(OCC(=O)O)cc3)NC(=O)[C@H](CCN)NC(=O)CSC[C@@H](C(=O)N[C@@H](CCN)C(N)=O)NC(=O)[C@H](CO)NC(=O)[C@H](C(C)(C)C(=O)O)NC(=O)[C@H](CC3CCCCC3)NC(=O)[C@H](CCN)NC(=O)[C@@H](CC(C)C)NC(=O)[C@H](CCCN)NC(=O)[C@H](Cc3ccc(OCC(=O)O)cc3)NC(=O)[C@H](Cc3ccc(-c4ccccc4)cc3)NC(=O)[C@H](Cc3ccc(OCC(=O)O)cc3)NC2=O)c1` [Compound 2070] ({CH2CO}-[Dab]Y(Carboxymethyl)D[Phe(3-Me)]Y(Carboxymethyl)[Bip]Y(Carboxymethyl)[Orn][dL][Dab][Cha][Asp(3,3-Me2)]SC[Dab]-NH2; thioether N-14) belongs 17 nM.
Turning to `Cc1cccc(C[C@@H]2NC(=O)[C@H](CC(=O)O)NC(=O)[C@H](Cc3ccc(OCC(=O)O)cc3)NC(=O)[C@H](CCN)NC(=O)CSC[C@@H](C(=O)N[C@H](C(N)=O)C(C)(C)C(=O)O)NC(=O)[C@H](CO)NC(=O)[C@H](C(C)(C)O)NC(=O)[C@H](CC3CCCCC3)NC(=O)[C@H](CCN)NC(=O)[C@@H](CC(C)C)NC(=O)[C@H](CCCN)NC(=O)[C@H](Cc3ccc(OCC(=O)O)cc3)NC(=O)[C@H](Cc3ccc(-c4ccccc4)cc3)NC(=O)[C@H](Cc3ccc(OCC(=O)O)cc3)NC2=O)c1` [Compound 2071] ({CH2CO}-[Dab]Y(Carboxymethyl)D[Phe(3-Me)]Y(Carboxymethyl)[Bip]Y(Carboxymethyl)[Orn][dL][Dab][Cha][Val(3-OH)]SC[Asp(3,3-Me2)]-NH2; thioether N-14), the IC50 worked out at 148 nM.
Then `Cc1cccc(C[C@@H]2NC(=O)[C@H](CC(=O)O)NC(=O)[C@H](Cc3ccc(C(=O)O)cc3)NC(=O)[C@H](Cc3ccncc3)NC(=O)CSC[C@@H](C(=O)N[C@@H](CCN)C(N)=O)NC(=O)[C@H](CO)NC(=O)[C@H](C(C)(C)O)NC(=O)[C@H](CC3CCCCC3)NC(=O)[C@H](CCN)NC(=O)[C@@H](CC(C)C)NC(=O)[C@H](C(C)(C)C(=O)O)NC(=O)[C@H](Cc3ccc(OCC(=O)O)cc3)NC(=O)[C@H](Cc3ccc(-c4ccccc4)cc3)NC(=O)[C@H](Cc3ccc(OCC(=O)O)cc3)NC2=O)c1` [Compound 2072] ({CH2CO}-[4Pal][Phe(4-COOH)]D[Phe(3-Me)]Y(Carboxymethyl)[Bip]Y(Carboxymethyl)[Asp(3,3-Me2)][dL][Dab][Cha][Val(3-OH)]SC[Dab]-NH2; thioether N-14), with 19.5 nM; and `Cc1cccc(C[C@@H]2NC(=O)[C@H](CC(=O)O)NC(=O)[C@H](Cc3ccc(OCC(=O)O)cc3)NC(=O)[C@H](CCN)NC(=O)CSC[C@@H](C(=O)N[C@@H](CCN)C(N)=O)NC(=O)[C@H](CO)NC(=O)[C@H](C(C)(C)O)NC(=O)[C@H](CC3CCCCC3)NC(=O)[C@H](CCN)NC(=O)[C@@H](CC(C)C)NC(=O)[C@H](C(C)(C)C(=O)O)NC(=O)[C@H](Cc3ccc(OCC(=O)O)cc3)NC(=O)[C@H](Cc3ccc(-c4ccccc4)cc3)NC(=O)[C@H](Cc3ccc(OCC(=O)O)cc3)NC2=O)c1` [Compound 2073] ({CH2CO}-[Dab]Y(Carboxymethyl)D[Phe(3-Me)]Y(Carboxymethyl)[Bip]Y(Carboxymethyl)[Asp(3,3-Me2)][dL][Dab][Cha][Val(3-OH)]SC[Dab]-NH2; thioether N-14), with 22.2 nM; and `CCC[C@@H]1NC(=O)CSC[C@@H](C(=O)N[C@@H](CCN)C(=O)NCCOC)NC(=O)[C@H](CO)NC(=O)[C@H](C(C)(C)O)NC(=O)[C@H](CC2CCCCC2)NC(=O)[C@H](CCN)NC(=O)[C@@H](CC(C)C)NC(=O)[C@H](CCCN)NC(=O)[C@H](Cc2ccc(OCC(=O)O)cc2)NC(=O)[C@H](Cc2ccc(-c3ccccc3)cc2)NC(=O)[C@H](Cc2ccc(OCC(=O)O)cc2)NC(=O)[C@H](Cc2cccc(C)c2)NC(=O)[C@H](CC(=O)O)NC(=O)[C@H](Cc2ccc(OCC(=O)O)cc2)NC1=O` [Compound 2074] ({CH2CO}-[Nva]Y(Carboxymethyl)D[Phe(3-Me)]Y(Carboxymethyl)[Bip]Y(Carboxymethyl)[Orn][dL][Dab][Cha][Val(3-OH)]SC[Dab]-NHCH2CH2OMe; thioether N-14), with 4.4 nM.
As for `COCCNC(=O)[C@H](CCN)NC(=O)[C@@H]1CSCC(=O)N[C@@H](CCOC)C(=O)N[C@@H](Cc2ccc(OCC(=O)O)cc2)C(=O)N[C@@H](CC(=O)O)C(=O)N[C@@H](Cc2cccc(C)c2)C(=O)N[C@@H](Cc2ccc(OCC(=O)O)cc2)C(=O)N[C@@H](Cc2ccc(-c3ccccc3)cc2)C(=O)N[C@@H](Cc2ccc(OCC(=O)O)cc2)C(=O)N[C@@H](CCCN)C(=O)N[C@H](CC(C)C)C(=O)N[C@@H](CCN)C(=O)N[C@@H](CC2CCCCC2)C(=O)N[C@@H](C(C)(C)O)C(=O)N[C@@H](CO)C(=O)N1` [Compound 2075] ({CH2CO}-[hSer](Me)Y(Carboxymethyl)D[Phe(3-Me)]Y(Carboxymethyl)[Bip]Y(Carboxymethyl)[Orn][dL][Dab][Cha][Val(3-OH)]SC[Dab]-NHCH2CH2OMe; thioether N-14), the IC50 is 4.1 nM.
Then `COCCNC(=O)[C@H](CCN)NC(=O)[C@@H]1CSCC(=O)N[C@@H](Cc2ccncc2)C(=O)N[C@@H](Cc2ccc(C(=O)O)cc2)C(=O)N[C@@H](CC(=O)O)C(=O)N[C@@H](Cc2cccc(C)c2)C(=O)N[C@@H](Cc2ccc(OCC(=O)O)cc2)C(=O)N[C@@H](Cc2ccc(-c3ccccc3)cc2)C(=O)N[C@@H](Cc2ccc(OCC(=O)O)cc2)C(=O)N[C@@H](CCCN)C(=O)N[C@H](CC(C)C)C(=O)N[C@@H](CCN)C(=O)N[C@@H](CC2CCCCC2)C(=O)N[C@@H](C(C)(C)O)C(=O)N[C@@H](CO)C(=O)N1` [Compound 2076] ({CH2CO}-[4Pal][Phe(4-COOH)]D[Phe(3-Me)]Y(Carboxymethyl)[Bip]Y(Carboxymethyl)[Orn][dL][Dab][Cha][Val(3-OH)]SC[Dab]-NHCH2CH2OMe; thioether N-14), with 240 nM.
